Data published in patent US20160137746A1, “METHODS FOR TREATING HIGH CARDIOVASCULAR RISK PATIENTS WITH HYPERCHOLESTEROLEMIA” (Sanofi Biotechnology, priority 2014, published 2016).

Experiments:
[1] = system: high cardiovascular risk patients with hypercholesterolemia; conditions: human, in vivo, 52 weeks
Method: (§1) Safety assessments during both studies were as follows. Safety was assessed through adverse event (AE) reporting (including adjudicated cardiovascular events), laboratory analyses, and vital signs measurement. Since the LDL-C-lowering effects of PCSK9 inhibition on top of a statin are unknown, a number of AEs were defined as being of special interest and were monitored, including alanine aminotransferase abnormalities, allergic events, hemolytic anemia, pregnancy, overdose with study drug, neurologic events, ophthalmic events, and local injection site reactions.
(§2) Safety Analyses were as follows. AEs (including adjudicated cardiovascular events), laboratory parameters, and vital signs were reported descriptively, based on the safety population (all randomized patients who received at least 1 dose or partial dose of study treatment). The safety analysis focused on the treatment-emergent AE period defined as the time from the first double-blind dose to the last double-blind dose of the investigational product +70 days (10 weeks).
(§3) The safety population included all randomized patients who received at least one dose or part of a dose of the double-blind IMP.
(§4) Safety analyses were descriptive, performed on the safety population according to treatment actually received. For analysis of TEAE and PCSA, the safety analysis focused on the TEAE period defined as the time from the first dose of double-blind IMP administration (capsule or injection, whichever comes first) up to 70 days after the last double-blind injection.

[2] = system: high cardiovascular risk patients with hypercholesterolemia; assay: ODYSSEY COMBO II: lipid efficacy of alirocumab vs ezetimibe, add-on to maximally tolerated statin; assay type: in vivo, human; conditions: for Calculated LDL-C percent change from baseline, LS mean (SE): ITT population, MMRM, alirocumab 75 Q2W/Up150 Q2W, ezetimibe 10
From the text: Each of the COMBO studies was randomized, double-blinded, and placebo-controlled.
The primary efficacy endpoint for each study was the difference between treatment arms in the percent change in LDL-C from baseline to Week 24.
Apo, apolipoprotein; HDL-C, high-density lipoprotein cholesterol; ITT, intent-to-treat; LDL-C, low-density lipoprotein cholesterol; Lp(a), lipoprotein (a); TG, triglycerides.
COMBO II was a Phase 3, randomized, double-blind, active-controlled, parallel-group, multinational 104-week study. The study enrolled high-risk patients with uncontrolled hypercholesterolemia on stable, maximally tolerated daily statin therapy. Unlike COMBO I, with a placebo arm, COMBO II incorporated an active-treatment arm (ezetimibe) with double-dummy design (FIG. 1B) and patients were not allowed to receive any other lipid lowering therapies besides statin and their randomized treatment.
After randomization, patients entered a double-blind, double-dummy treatment period of 104 weeks.
Primary analyses of efficacy endpoints were conducted using an ITT approach (based on the ITT population defined above), including all lipid data, regardless of whether the patient was continuing therapy or not. This corresponds to ITT estimands, defined for primary and key secondary endpoints. In addition, analyses were also conducted using an on-treatment approach (based on the mITT population defined above), including lipid data collected during the efficacy treatment period. This corresponds to on-treatment estimands of key secondary endpoints.
With regards to the primary efficacy analysis (ITT approach), the percent change in calculated LDL-C from baseline to Week 24 was analyzed using a mixed-effect model with repeated measures (MMRM) approach.

[3] = system: high cardiovascular risk patients with hypercholesterolemia; assay: ODYSSEY COMBO II: safety (TEAEs, adjudicated CV events, laboratory parameters, low LDL-C)
Method: as §1, §2, §3, §4

[4] = safety population at 52 weeks, all patients, number (%) of patients
[5] = treatment period, safety population

O=C1[C@H](CC[C@H](O)c2ccc(F)cc2)[C@@H](c2ccc(O)cc2)N1c1ccc(F)cc1 [Ezetimibe, ezetimibe, reference compound]
TEAE preferred term: Influenza [1]: 7 (2.9) | Achieved LDL-C, median ([2]; 24 weeks, FIG. 7): 70 mg/dL | Calculated LDL-C, LS mean (SE) percent change from baseline ([2]; ITT, Week 24): −20.7 (1.9) % | Fasting TGs, LS mean percent change from baseline ([2]; ITT, Week 24): −12.8% | Calculated LDL-C, LS mean (SE) percent change from baseline ([2]; ITT, Week 24, listed as ezetimibe): −20.7% | Calculated LDL-C percent change from baseline, LS mean (SE) ([2]; Week 4): −25.3 (1.6) % | Calculated LDL-C percent change from baseline, LS mean (SE) ([2]; Week 8): −24.3 (1.7) % | Calculated LDL-C percent change from baseline, LS mean (SE) ([2]; Week 12): −21.8 (1.8) % | Calculated LDL-C percent change from baseline, LS mean (SE) ([2]; Week 16): −23.0 (1.8) % | Fasting TGs reduced from baseline ([2]; Week 24): 13.3% | Mean achieved LDL-C ([2]; Week 24): 82.5 (2.0) mg/dL | Calculated LDL-C percent change from baseline, LS mean (SE) ([2]; Week 24): −20.7 (1.9) % | Apo-B - Percent change from baseline to Week 24, LS mean vs. baseline ([2]; Week 24, On-treatment analysis): −19.1 (1.4) | Calculated LDL-C - Percent change from baseline to Week 24, LS mean vs. baseline ([2]; Week 24, On-treatment analysis): −21.8 (1.8) % | Non-HDL-C - Percent change from baseline to Week 24, LS mean vs. baseline ([2]; Week 24, On-treatment analysis): −20.2 (1.6) | HDL-C percent change from baseline to week 24 ([2]; Week 24, on-treatment analysis): 0.8 (1.1) | Lipoprotein(a) percent change from baseline to week 24 ([2]; Week 24, on-treatment analysis): −5.6 (1.9) | Total cholesterol percent change from baseline to week 24 ([2]; Week 24, on-treatment analysis): −15.2 (1.2) | Triglycerides (fasted) percent change from baseline to week 24 ([2]; Week 24, on-treatment analysis): −13.3 (2.0) | Calculated LDL-C percent change from baseline, LS mean (SE) ([2]; Week 36): −19.3 (2.0) % | Calculated LDL-C percent change from baseline, LS mean (SE) ([2]; Week 52): −18.3 (2.1) % | Adjudicated cardiovascular events ([3]; in vivo): 3.7% | SOC gastrointestinal disorders ([3]; in vivo): 13.7% | SOC infections and infestations ([3]; in vivo): 25.3% | SOC musculoskeletal and connective tissue disorders ([3]; in vivo): 17.0% | Treatment-emergent local injection site reactions ([3]; in vivo): 0.8% | Patients who experienced at least one TEAE ([3]; mean 58 weeks' follow-up): 67.2% | Serious adverse event ([3]; mean 58 weeks' follow-up): 17.8% | TEAE leading to death ([3]; mean 58 weeks' follow-up): 4 (1.7%) n (%) | TEAEs leading to treatment discontinuation ([3]; mean 58 weeks' follow-up): 5.4% | Laboratory parameters: Blood glucose increased [3, 4]: 3 (1.2) | Laboratory parameters: Hemoglobin decreased [3, 4]: 2 (0.8) | Patients experiencing any TEAE [3, 4]: 162 (67.2) | TEAE preferred term: Accidental overdose [3, 4]: 16 (6.6) | TEAE preferred term: Angina pectoris [3, 4]: 11 (4.6) | TEAE preferred term: Arthralgia [3, 4]: 9 (3.7) | TEAE preferred term: Dizziness [3, 4]: 13 (5.4) | TEAE preferred term: Headache [3, 4]: 10 (4.1) | TEAE preferred term: Hypertension [3, 4]: 10 (4.1) | TEAE preferred term: Myalgia [3, 4]: 12 (5.0) | TEAE preferred term: Nasopharyngitis [3, 4]: 9 (3.7) | TEAE preferred term: Upper respiratory tract infection [3, 4]: 14 (5.8) | TEAE system organ class: Blood and lymphatic system disorders [3, 4]: 8 (3.3) | TEAE system organ class: Cardiac disorders [3, 4]: 29 (12.0) | TEAE system organ class: Eye disorders [3, 4]: 9 (3.7) | TEAE system organ class: Gastrointestinal disorders [3, 4]: 33 (13.7) | TEAE system organ class: General disorders and administration site conditions [3, 4]: 26 (10.8) | TEAE system organ class: Infections and infestations [3, 4]: 61 (25.3) | TEAE system organ class: Injury, poisoning, and procedural complications [3, 4]: 33 (13.7) | TEAE system organ class: Investigations [3, 4]: 21 (8.7) | TEAE system organ class: Metabolism and nutrition disorders [3, 4]: 18 (7.5) | TEAE system organ class: Musculoskeletal and connective tissue disorders [3, 4]: 41 (17.0) | TEAE system organ class: Neoplasms, benign, malignant and unspecified (including cysts and polyps) [3, 4]: 7 (2.9) | TEAE system organ class: Nervous system disorders [3, 4]: 40 (16.6) | TEAE system organ class: Psychiatric disorders [3, 4]: 12 (5.0) | TEAE system organ class: Renal and urinary disorders [3, 4]: 13 (5.4) | TEAE system organ class: Reproductive system and breast disorders [3, 4]: 2 (0.8) | TEAE system organ class: Respiratory, thoracic, and mediastinal disorders [3, 4]: 22 (9.1) | TEAE system organ class: Skin and subcutaneous tissue disorders [3, 4]: 15 (6.2) | TEAE system organ class: Vascular disorders [3, 4]: 20 (8.3) | Patients with 2 consecutive calculated LDL-C value <15 mg/dL [3, 5]: 0/230 | Patients with 2 consecutive calculated LDL-C value <25 mg/dL [3, 5]: 0/230 | Patients with 2 consecutive calculated LDL-C value <25 mg/dL ([3]; treatment period, safety population, listed as ezetimibe): none
